DC50 data for 13 molecules are collected here from patent publication US20260355325A1, “DIMER COMPOUNDS” (KESMALEA THERAPEUTICS LIMITED, priority 2023, published 2026).

This assay concerns the target T1, BRD4 (Homo sapiens, UniProt O60885).
T1 construct: Flp-In LgBiT HEK293 cells; lytic luminescence degradation readout
Briefly: BRD4 HiBiT Assay (degradation of endogenous BRD4 in HiBiT knock-in Flp-In LgBiT HEK293 cells). It counts as cell-based. An excerpt:
The purpose of the BRD4 HiBiT Assay was to assess the binding affinity of the dimer to BRD4 and subsequent protein degradation.
BRD4 HiBiT cells (Flp-In™ LgBiT and KI HiBiT) were generated by first creating a Flp-In™293 stable cell line, transfecting in the pFRT serial vector containing an integrated Flp recombination target (FRT) site (Thermo Fisher Scientific, Waltham, MA) to HEK293 cells (ATCC, Manassas, VA). The LgBiT expression sequence (Promega Corporation, Madison, WA) was then introduced into the genome via Flp recombinase-mediated DNA recombination at the FRT site. HiBiT sequence (Promega Corporation, Madison, WA) was then knocked in to the endogenous BRD4 protein in the Flp-In™ LgBiT HEK293 cells and successful clones verifying by sequencing. Work on BRD4 HiBiT cell line was performed under license from Promega Corporation (Madison, WA). Cells were maintained in DMEM (Invitrogen™, Waltham, MA) supplemented with 10% FBS (AusGeneX, Molendinar, Australia) and 1% penicillin/streptomycin (Invitrogen™, Waltham, MA) in a humidified incubator at 5% CO2, 37° C.
Compounds were dissolved in DMSO (10 mM), serially diluted from 10 mM to 1.5 nM, and pre-incubated for 2 hours. Exponentially growing cells were seeded at 1×10^4 cells per well of 384 well plate (Corning, New York #3570). Cells were treated with compound for 6 or 48 hours. Following treatment, Nano-Glo® HiBiT Lytic Detection reagent (Promega Corporation, Madison, WA) was added according to manufacturer's instructions, and signal read using BMG CLARIOstar plate reader (BMG Labtech, Ortenburg, Germany). Each data point was performed in duplicate for every experiment. A DC50 value was calculated from linear regression analysis of the plots.
(In general: The HiBiT peptide binds its large partner to form an active luciferase.)

Setting [1] is: BRD4 degradation in cells at 6-hour timepoint.
Setting [2] is: BRD4 degradation in cells at 48-hour timepoint.

For orientation: DC50 means the concentration giving 50% degradation.

Bounds are passed on as bounds.

Consider `Cc1ncsc1-c1ccc([C@H](C)NC(=O)[C@@H]2C[C@@H](O)CN2C(=O)[C@H](c2cc(OCc3ccccc3B3O[C@@H]4[C@H]5CC[C@H](C5)[C@]4(CCCNC(=O)C[C@@H]4N=C(c5ccc(Cl)cc5)c5c(sc(C)c5C)-n5c(C)nnc54)O3)no2)C(C)C)cc1` (single isomer, unassigned) [Example 9], for which the DC50 under setting [1] was < 0.1 µM.
For `Cc1ncsc1-c1ccc(CNC(=O)[C@@H]2C[C@@H](O)CN2C(=O)[C@@H](NC(=O)CCc2ccccc2B2O[C@H]3C[C@H]4C[C@H](C4(C)C)[C@@]3(CCNC(=O)C[C@@H]3N=C(c4ccc(Cl)cc4)c4c(sc(C)c4C)-n4c(C)nnc43)O2)C(C)(C)C)cc1` [Example 1, (2S,4R)-1-((S)-2-(3-(2-((3aR,4R,6R,7aS)-3a-(2-(2-((S)-4-(4-chlorophenyl)-2,3,9-trimethyl-6H-thieno[3,2-f][1,2,4]triazolo[4,3-a][1,4]diazepin-6-yl)acetamido)ethyl)-5,5-dimethylhexahydro-4,6-methanobenzo[d][1,3,2]dioxaborol-2-yl)phenyl)propanamido)-3,3-dimethylbutanoyl)-4-hydroxy-N-(4-(4-methylthiazol-5-yl)benzyl)pyrrolidine-2-carboxamide], under setting [1], the DC50 is < 0.1 µM.
Take `Cc1ncsc1-c1ccc([C@H](C)NC(=O)[C@@H]2C[C@@H](O)CN2C(=O)[C@@H](NC(=O)CCc2ccccc2B2O[C@H]3C[C@H]4C[C@H](C4(C)C)[C@@]3(CCCNC(=O)C[C@@H]3N=C(c4ccc(Cl)cc4)c4c(sc(C)c4C)-n4c(C)nnc43)O2)C(C)(C)C)cc1` [Example 7, (2S,4R)-1-((S)-2-(3-(2-((3aR,4R,6R,7aS)-3a-(3-(2-((S)-4-(4-chlorophenyl)-2,3,9-trimethyl-6H-thieno[3,2-f][1,2,4]triazolo[4,3-a][1,4]diazepin-6-yl)acetamido)propyl)-5,5-dimethylhexahydro-4,6-methanobenzo[d][1,3,2]dioxaborol-2-yl)phenyl)propanamido)-3,3-dimethylbutanoyl)-4-hydroxy-N—((S)-1-(4-(4-methylthiazol-5-yl)phenyl)ethyl)pyrrolidine-2-carboxamide]: the DC50 under setting [1] was < 0.1 µM.
For `Cc1sc2c(c1C)C(c1ccc(Cl)cc1)=N[C@@H](CC(=O)NCCC[C@@]13OB(c4ccccc4CCC4CN(c5ccc(N6CCC(=O)NC6=O)cc5)C4)O[C@@H]1C[C@@H]1C[C@H]3C1(C)C)c1nnc(C)n1-2` [Example 8, 2-((S)-4-(4-chlorophenyl)-2,3,9-trimethyl-6H-thieno[3,2-f][1,2,4]triazolo[4,3-a][1,4]diazepin-6-yl)-N-(3-((3aS,4S,6S,7aR)-2-(2-(2-(1-(4-(2,4-dioxotetrahydropyrimidin-1(2H)-yl)phenyl)azetidin-3-yl)ethyl)phenyl)-5,5-dimethyltetrahydro-4,6-methanobenzo[d][1,3,2]dioxaborol-3a(4H)-yl)propyl)acetamide], the DC50 under setting [1] was < 0.1 µM.
Regarding `Cc1cc(C(C(=O)N2C[C@H](O)C[C@H]2C(=O)NCc2ccc(Cl)cc2OC[C@]23OB(c4ccccc4CCNC(=O)C[C@@H]4N=C(c5ccc(Cl)cc5)c5c(sc(C)c5C)-n5c(C)nnc54)O[C@H]2C[C@H]2C[C@@H]3C2(C)C)C(C)C)on1` (single isomer, unassigned) [Example 11], the DC50 under setting [2] fell in the range of 1 to 10 µM.
Regarding `Cc1ncsc1-c1ccc([C@H](C)NC(=O)[C@@H]2C[C@@H](O)CN2C(=O)[C@@H](NC(=O)CCc2ccccc2B2O[C@H]3C[C@H]4C[C@H](C4(C)C)[C@@]3(CCNC(=O)C[C@@H]3N=C(c4ccc(Cl)cc4)c4c(sc(C)c4C)-n4c(C)nnc43)O2)C(C)(C)C)cc1` [Example 6, (2S,4R)-1-((S)-2-(3-(2-((3aR,4R,6R,7aS)-3a-(2-(2-((S)-4-(4-chlorophenyl)-2,3,9-trimethyl-6H-thieno[3,2-f][1,2,4]triazolo[4,3-a][1,4]diazepin-6-yl)acetamido)ethyl)-5,5-dimethylhexahydro-4,6-methanobenzo[d][1,3,2]dioxaborol-2-yl)phenyl)propanamido)-3,3-dimethylbutanoyl)-4-hydroxy-N—((S)-1-(4-(4-methylthiazol-5-yl)phenyl)ethyl)pyrrolidine-2-carboxamide], the 50% degradation concentration (DC50) under setting [1] is < 0.1 µM.
With `Cc1cc(C(C(=O)N2C[C@H](O)C[C@H]2C(=O)NCc2ccc(Cl)cc2B2O[C@H]3C[C@H]4C[C@H](C4(C)C)[C@@]3(CCNC(=O)C[C@@H]3N=C(c4ccc(Cl)cc4)c4c(sc(C)c4C)-n4c(C)nnc43)O2)C(C)C)on1` (single isomer, unassigned) [Example 10], the DC50 under setting [2] lay in the range of 1 to 10 µM.
In the case of `Cc1ncsc1-c1ccc(CNC(=O)[C@@H]2C[C@@H](O)CN2C(=O)[C@@H](NC(=O)CCc2cccc(F)c2B2O[C@H]3C[C@H]4C[C@H](C4(C)C)[C@@]3(CCNC(=O)C[C@@H]3N=C(c4ccc(Cl)cc4)c4c(sc(C)c4C)-n4c(C)nnc43)O2)C(C)(C)C)cc1` [Example 3, (2S,4R)-1-((2S)-2-(3-(2-((3aR,4R,6R,7aS)-3a-(2-(2-((6S)-4-(4-chlorophenyl)-2,3,9-trimethyl-6H-thieno[3,2-f][1,2,4]triazolo[4,3-a][1,4]diazepin-6-yl)acetamido)ethyl)-5,5-dimethylhexahydro-4,6-methanobenzo[d][1,3,2]dioxaborol-2-yl)-3-fluorophenyl)propanamido)-3,3-dimethylbutanoyl)-4-hydroxy-N-(4-(4-methylthiazol-5-yl)benzyl)pyrrolidine-2-carboxamide], under setting [1], the DC50 is < 0.1 µM.
For `Cc1sc2c(c1C)C(c1ccc(Cl)cc1)=N[C@@H](CC(=O)NCC[C@]13OB(c4ccccc4CCCC(=O)Nc4cccc5c4C(=O)N(C4CCC(=O)NC4=O)C5=O)O[C@H]1C[C@H]1C[C@@H]3C1(C)C)c1nnc(C)n1-2` (mixture of isomers) [Example 4, 4-(2-((3aR,4R,6R,7aS)-3a-(2-(2-((S)-4-(4-chlorophenyl)-2,3,9-trimethyl-6H-thieno[3,2-f][1,2,4]triazolo[4,3-a][1,4]diazepin-6-yl)acetamido)ethyl)-5,5-dimethylhexahydro-4,6-methanobenzo[d][1,3,2]dioxaborol-2-yl)phenyl)-N-(2-(2,6-dioxopiperidin-3-yl)-1,3-dioxoisoindolin-4-yl)butanamide], the DC50 under setting [1] is < 0.1 µM.
Take `Cc1ncsc1-c1ccc(CNC(=O)[C@@H]2C[C@@H](O)CN2C(=O)C(c2cc(OCc3ccccc3B3O[C@@H]4C[C@@H]5C[C@@H](C5(C)C)[C@]4(CCNC(=O)C[C@@H]4N=C(c5ccc(Cl)cc5)c5c(sc(C)c5C)-n5c(C)nnc54)O3)no2)C(C)C)cc1` (single isomer, unassigned) [Example 13]: the DC50 under setting [1] was < 0.1 µM.
The same measure, in the same setting: the figure for `Cc1sc2c(c1C)C(c1ccc(Cl)cc1)=N[C@@H](CC(=O)NCCC[C@]13OB(c4ccccc4CCCC(=O)Nc4cccc5c4C(=O)N(C4CCC(=O)NC4=O)C5=O)O[C@H]1C[C@H]1C[C@@H]3C1(C)C)c1nnc(C)n1-2` (stereo partly drawn) [Example 2, 4-(2-((3aR,4R,6R,7aS)-3a-(3-(2-((S)-4-(4-chlorophenyl)-2,3,9-trimethyl-6H-thieno[3,2-f][1,2,4]triazolo[4,3-a][1,4]diazepin-6-yl)acetamido)propyl)-5,5-dimethylhexahydro-4,6-methanobenzo[d][1,3,2]dioxaborol-2-yl)phenyl)-N-(2-(2,6-dioxopiperidin-3-yl)-1,3-dioxoisoindolin-4-yl)butanamide] is < 0.1 µM.
On to `Cc1cc([C@H](C(=O)N2C[C@H](O)C[C@H]2C(=O)NCc2ccc(Cl)cc2OCCCB2O[C@H]3C[C@H]4C[C@H](C4(C)C)[C@@]3(CCNC(=O)C[C@@H]3N=C(c4ccc(Cl)cc4)c4c(sc(C)c4C)-n4c(C)nnc43)O2)C(C)C)on1` [Example 12, (2S,4R)—N-(4-chloro-2-(3-((3aR,4R,6R,7aS)-3a-(2-(2-((S)-4-(4-chlorophenyl)-2,3,9-trimethyl-6H-thieno[3,2-f][1,2,4]triazolo[4,3-a][1,4]diazepin-6-yl)acetamido)ethyl)-5,5-dimethylhexahydro-4,6-methanobenzo[d][1,3,2]dioxaborol-2-yl)propoxy)benzyl)-4-hydroxy-1-((R)-3-methyl-2-(3-methylisoxazol-5-yl)butanoyl)pyrrolidine-2-carboxamide], for which the DC50 under setting [2] was in the range of 1 to 10 µM.
Regarding `Cc1ncsc1-c1ccc(CNC(=O)[C@@H]2C[C@@H](O)CN2C(=O)[C@@H](NC(=O)CCc2ccccc2B2O[C@H]3C[C@H]4C[C@H](C4(C)C)[C@@]3(CCCNC(=O)C[C@@H]3N=C(c4ccc(Cl)cc4)c4c(sc(C)c4C)-n4c(C)nnc43)O2)C(C)(C)C)cc1` [Example 5, (2S,4R)-1-((S)-2-(3-(2-((3aR,4R,6R,7aS)-3a-(3-(2-((S)-4-(4-chlorophenyl)-2,3,9-trimethyl-6H-thieno[3,2-f][1,2,4]triazolo[4,3-a][1,4]diazepin-6-yl)acetamido)propyl)-5,5-dimethylhexahydro-4,6-methanobenzo[d][1,3,2]dioxaborol-2-yl)phenyl)propanamido)-3,3-dimethylbutanoyl)-4-hydroxy-N-(4-(4-methylthiazol-5-yl)benzyl)pyrrolidine-2-carboxamide], under setting [1], the DC50 was < 0.1 µM.
